Data from patent US10071107B2, “Pharmaceutical composition for prevention, treatment or delay of Alzheimer's disease or dementia containing G protein-coupled receptor 19 agent as active ingredient” (SEOUL NATIONAL UNIVERSITY R&DB FOUNDATION, priority 2015, dated 2018).

What was measured:
[1] = system: Alzheimer's animal model (5×FAD); type: in vivo, mouse; settings: 1 mg/kg twice a week, total 20 times
Alzheimer's animal model [2] = experiment: Blood analysis of inflammatory substances (bioplex); type: in vivo, mouse; settings: 1 mg/kg twice per week, total 20 times; FIG. 9
Method: [Experimental Method: Blood analysis] The blood was obtained from the mouse by cardiac blood collection or orbital blood collection. For analyzing the inflammatory substance, the obtained blood was left for 2 hours at room temperature and centrifuged, a supernatant was taken, and each inflammatory substance was quantitatively analyzed by using a kit and equipment for bioplex. In order to analyze biochemical and hematopoietic cells, the obtained blood was put in an appropriate tube or container and applied to a biochemical analyzer and a hematology analyzer, respectively, to obtain data. FIG. 9 illustrates a result of analyzing an inflammatory substance in the blood by extracting the blood of the mouse after 1 mg/kg of PBS or sodium taurodeoxycholate is injected to a control mouse and an Alzheimer's mouse twice per week and a total of 20 times.

Alzheimer's animal model [3] = experiment: Blood analysis of biochemical components (metabolites); type: in vivo, mouse; settings: 1 mg/kg twice per week, total 20 times; FIG. 10
Method: [Experimental Method: Blood analysis] The blood was obtained from the mouse by cardiac blood collection or orbital blood collection. For analyzing the inflammatory substance, the obtained blood was left for 2 hours at room temperature and centrifuged, a supernatant was taken, and each inflammatory substance was quantitatively analyzed by using a kit and equipment for bioplex. In order to analyze biochemical and hematopoietic cells, the obtained blood was put in an appropriate tube or container and applied to a biochemical analyzer and a hematology analyzer, respectively, to obtain data. After 1 mg/kg of PBS or sodium taurodeoxycholate is injected to the control mouse and the Alzheimer's mouse twice per week and a total of 20 times, the blood of the mouse was extracted and then the biochemical components in the blood were analyzed. The result was illustrated in FIG. 10.

[4] = system: Alzheimer's animal model (5×FAD); experiment: TUNEL staining of apoptotic region in brain tissue; type: in vivo, mouse; settings: frontal cortex, FIG. 8
Method: [Experimental Method: Tissue fluorescent staining] A mouse was anesthetized, the limbs were fixed and then the mouse was cut to expose the heart by scissors and tweezers. The upper right atrium was slightly cut by the scissors and punctured, a needle was put in the left ventricle, and PBS was injected and perfused. When the colors of the blood vessel and the organs turned to white, a 4% paraformaldehyde (PFA) solution was replaced and injected until muscle contraction occurred and the soles were hard. […] The cut tissue piece was attached on the slide by using a brush and blocked for preventing a nonspecific antibody binding, and then reacted with a specific antibody (coupled with a fluorescence) to a protein to be reported. […] The photographed image was converted into numeral values by measuring the fluorescent strength for each fluorescence by analysis software.
The brain tissue of the Alzheimer's model mouse administrated with the drug was extracted and a reduction of the lesion such as an apoptotic lesion in the frontal cortex and the hippocampus area was measured by fluorescent-staining, and the result was illustrated in FIG. 8. The PBS or sodium taurodeoxycholate was administrated in the Alzheimer's mouse and a region damaged by apoptosis in the frontal cortex of the administrated mouse was analyzed by TUNEL staining. […]

[5] = system: Alzheimer's mouse model (5×FAD); experiment: Morris water maze (spatial learning, probe test); type: in vivo; settings: 1 mg/kg twice a week, total 20 times
Method: [Experimental Method: Morris Water maze] An acryl-made platform having a diameter of 10 cm was installed in a circular water tank having a size of diameter×height=150 cm×80 cm and a camera was installed at the center of the water tank on the ceiling where the water tank was placed. Around the water tank, a horizontal cue, a vertical grid cue, and a circular object cue were disposed, respectively. For the experimental preparation, water at about 26° C. was filled in the water tank up to a height of about 1 cm from the top of the platform and a white water paint was dissolved.
At a first experimental day, the mouse was flooded at one position of the prepared water tank and swam for 3 minutes and then induced to move to the platform location by an experimenter's hand after 3 minutes and left for 1 minute on the platform. After 1 minute, the mouse was lifted and covered by both hands and put in a cage again after 1 minute. This process was repeated three times. […] The process was repeated everyday until a difference between mouse groups was decreased. At the final experimental day, the mouse was flooded in the water tank after removing the platform in the water tank and a video for 90 seconds was recorded and then a moving path and the number of platform pass times of the mouse in the water tank, a time latency of the platform location, and the like were analyzed by using analysis software.
After 1 mg/kg of PBS or sodium taurodeoxycholate was injected to a control mouse and an Alzheimer's mouse (4 per group) twice a week and a total of 20 times, a result of evaluation a spatial learning ability through a water maze experiment was illustrated in FIG. 2. It was verified that a time required when the Alzheimer's mouse found the platform was shortened by administrating the sodium taurodeoxycholate drug.
After 1 mg/kg of PBS or sodium taurodeoxycholate was injected to a control mouse and an Alzheimer's mouse (more than 10 per group) twice a week and a total of 20 times, a mouse behavior pattern was tracked in the water tank without the platform. A representative image of the result of tracking the mouse movement in the water tank without the platform was illustrated in FIG. 3.
In the above experiment, the result of measuring the number of times when the mouse crossed the platform location and a time latency at the platform location was illustrated in FIG. 4 and in the sodium taurodeoxycholate administration mouse group, it was verified that the degree of memorizing the platform was high.

[6] = probe test without platform, FIG. 4

For C[C@H](CCC(=O)NCCS(=O)(=O)[O-])[C@H]1CC[C@H]2[C@@H]3CC[C@@H]4C[C@H](O)CC[C@]4(C)[C@H]3C[C@H](O)[C@]12C.[Na+] [sodium taurodeoxycholate], the “expression of iNOS” value ([1]; frontal cortex area, FIG. 7) was “significantly reduced”, the “cell distribution of astrocyte” value ([1]; frontal cortex, FIGS. 5 and 6) was “significantly reduced” and the “cell distribution of microglia” value ([1]; frontal cortex, FIGS. 5 and 6) was “significantly reduced”. The “formation of the amyloid β plague” value ([1]; frontal cortex, FIGS. 5 and 6) was “significantly reduced”, the astrocyte cell distribution ([1]; hippocampus area, FIGS. 5 and 6) was “significantly reduced” and the “amount of CCL3 in the blood” value (Alzheimer's animal model [2]) was “increased”. For the same compound, the “amount of glucose in the blood” value (Alzheimer's animal model [3]) was “decreased”, the “apoptotic region in the brain tissue” value [4] was “reduced” and the “number of times of crossing the platform location” value [5, 6] was “significantly increased”. For the same compound, the “time latency at the platform location” value [5, 6] was “significantly increased”, the “time required when the Alzheimer's mouse found the platform” value ([5]; water maze, FIG. 2) was “shortened” and the “moving pattern to the position of the platform” value ([5]; water tank without platform, FIG. 3) was “more actively observed”. The “degree of memorizing the platform” value ([5]; water tank without platform, FIG. 4) was “high”.
